Measurements: patent US7674594B2, “Screening assay for inhibitors of TRPA1 activation by a lower alkyl phenol” (Redpoint Bio Corporation, priority 2006, dated 2010)
“Also recorded” adds a separate entry of the source. Like-named read-outs stand apart in the source and are kept apart here.

Key:
hTRPA1 [1] = target: T1, hTRPA1 (Homo sapiens, UniProt O75762); experiment: Modulation of agonist-activated TRPA1 in HEK293 cells expressing hTRPA1 (membrane potential dye); type: cell-based
T1 construct: The full length hTRPA1 was amplified by PCR with Kpn1 and Xho1 restriction enzyme sites; expressed in transfected cells; also transient transfection
Description: (§1) Samples in a 384-well plate were evaluated in a 5 minute assay on the FLIPR-Tetra™ (Molecular Devices). The assay was performed on a FLIPR™ using the excitation 510-545 nm and emission 565-625 nm filter sets. TRPA1-Transfected HEK cells, 15,000/well, were seeded overnight on poly-D-lysine coated 384 well plates in 20 μl media. Membrane Potential Assay Dye Red (Molecular Devices), 20 μl/well, was added and the plates incubated for 1 hour in a 37° C. and 5% CO2 incubator. The plates were then removed from the incubator and equilibrated to room temperature for 15 minutes before reading on the FLIPR®. The plates were read on the FLIPR® for a total of 3 minutes. Baseline fluorescence was obtained on the FLIPR® for 10 seconds followed by addition (typically 10 μl) of each agonist by the FLIPR® and read for an additional 2 minutes and 50 seconds.
(§2) Appropriate control experiments are performed and can easily be determined by the skilled artisan.
(§3) HEK293 cells and CHO cells expressing TRPA1 were subjected to the assay described in Example 2.

hTRPA1 [2] = target: T1, hTRPA1; experiment: Membrane potential dye fluorescence assay (FLIPR/FLEXstation), activation of hTRPA1 in transfected HEK293 cells; type: cell-based
Description: Once expression of TRPA1 was confirmed, 100 μl of the Blue or Red FMP dye (Molecular Devices) was added to each well of plates seeded with the transiently transfected cells. The plate was then incubated in a 37° C./5% CO2 incubator for 1 hour. The plate was read in a FLEXStation microplate reader (Molecular Devices) with an excitation of 530 nm and an emission of 565 nm. The fluorescence was monitored for 3 minutes upon exposure of the cells to a TRPA1 activating agent (e.g., cinnamaldehyde).
as §1

hTRPM5 = target: T2, hTRPM5 (Homo sapiens, UniProt Q9NZQ8); experiment: Membrane potential dye fluorescence assay, HEK293 or CHO cells expressing hTRPM5; type: cell-based
T2 construct: expressed in transfected cells
T2 sequence (Q9NZQ8 1-1165): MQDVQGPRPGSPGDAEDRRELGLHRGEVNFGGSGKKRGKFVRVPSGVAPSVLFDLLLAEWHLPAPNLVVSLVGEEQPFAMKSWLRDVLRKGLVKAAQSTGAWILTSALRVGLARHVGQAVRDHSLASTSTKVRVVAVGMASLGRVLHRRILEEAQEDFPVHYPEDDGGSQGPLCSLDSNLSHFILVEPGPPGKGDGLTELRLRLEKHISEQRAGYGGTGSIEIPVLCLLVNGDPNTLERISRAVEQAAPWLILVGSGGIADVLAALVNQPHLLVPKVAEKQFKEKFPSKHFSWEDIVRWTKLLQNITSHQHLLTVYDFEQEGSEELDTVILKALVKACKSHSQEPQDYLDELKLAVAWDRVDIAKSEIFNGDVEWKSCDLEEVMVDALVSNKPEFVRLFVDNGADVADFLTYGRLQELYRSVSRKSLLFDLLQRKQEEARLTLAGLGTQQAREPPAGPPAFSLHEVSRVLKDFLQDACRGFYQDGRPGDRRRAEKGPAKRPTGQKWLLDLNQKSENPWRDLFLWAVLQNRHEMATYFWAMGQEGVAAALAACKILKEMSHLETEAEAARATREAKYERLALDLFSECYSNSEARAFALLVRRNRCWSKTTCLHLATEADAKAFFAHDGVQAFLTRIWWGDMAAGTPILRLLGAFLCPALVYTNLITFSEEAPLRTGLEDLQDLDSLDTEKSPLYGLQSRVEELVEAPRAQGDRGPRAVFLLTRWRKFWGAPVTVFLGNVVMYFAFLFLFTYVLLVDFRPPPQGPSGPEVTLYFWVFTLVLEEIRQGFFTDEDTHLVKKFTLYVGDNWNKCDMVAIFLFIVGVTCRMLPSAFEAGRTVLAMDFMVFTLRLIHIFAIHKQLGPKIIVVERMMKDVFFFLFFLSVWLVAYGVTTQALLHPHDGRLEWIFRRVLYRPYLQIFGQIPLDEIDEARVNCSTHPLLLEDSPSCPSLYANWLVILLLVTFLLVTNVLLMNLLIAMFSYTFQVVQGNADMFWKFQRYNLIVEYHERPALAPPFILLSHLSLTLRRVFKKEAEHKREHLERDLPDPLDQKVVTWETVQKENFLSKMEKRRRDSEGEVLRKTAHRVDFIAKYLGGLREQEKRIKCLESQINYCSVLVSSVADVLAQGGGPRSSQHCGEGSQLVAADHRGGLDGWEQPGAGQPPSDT
Description: as §1
(§4) HEK293 cells were stably transfected with one of hTRPA1, hTRPV1 or hTRPM5. CHO cells were stably transfected with one of hTRPM4B or TRPM5. Parental HEK293 and CHO cells were also used as a negative control.

hTRPV1 = target: T3, hTRPV1 (Homo sapiens, UniProt Q8NER1); experiment: Membrane potential dye fluorescence assay, HEK293 cells expressing hTRPV1; type: cell-based
T3 construct: expressed in transfected cells
Description: as §1, §4

hTRPM4B = target: T4, hTRPM4B (Homo sapiens, UniProt Q8TD43); experiment: Membrane potential dye fluorescence assay, CHO cells expressing hTRPM4B; type: cell-based
T4 construct: expressed in transfected cells
Description: as §1, §4

parental HEK293 cells = experiment: Membrane potential dye fluorescence assay in parental (non-transfected) HEK293 cells; type: cell-based, human
hTRPA1 [3] = target: T1, hTRPA1; experiment: Modulation of agonist-activated TRPA1 in CHO cells expressing hTRPA1 (membrane potential dye); type: cell-based
Description: as §1, §2, §3

mice = experiment: Taste aversion (lick) assay in mice; type: in vivo, mouse
Description: In this assay, the ability of identified lower alkyl phenols to evoke taste aversion in mice was measured. Mice were exposed to increasing concentrations of lower alkyl phenols.

[4] = hTRPA1 HEK293 cells, increase in fluorescence of membrane potential dye
[5] = increasing concentrations, FIG. 6
[6] = HEK293, increasing concentrations, FIG. 6
[7] = CHO, increasing concentrations, FIG. 6
[8] = HEK293 cells stably transfected with hTRPA1, FMP dye, FLIPR
[9] = mice, increasing concentrations

T3 sequence (Q8NER1 whole entry): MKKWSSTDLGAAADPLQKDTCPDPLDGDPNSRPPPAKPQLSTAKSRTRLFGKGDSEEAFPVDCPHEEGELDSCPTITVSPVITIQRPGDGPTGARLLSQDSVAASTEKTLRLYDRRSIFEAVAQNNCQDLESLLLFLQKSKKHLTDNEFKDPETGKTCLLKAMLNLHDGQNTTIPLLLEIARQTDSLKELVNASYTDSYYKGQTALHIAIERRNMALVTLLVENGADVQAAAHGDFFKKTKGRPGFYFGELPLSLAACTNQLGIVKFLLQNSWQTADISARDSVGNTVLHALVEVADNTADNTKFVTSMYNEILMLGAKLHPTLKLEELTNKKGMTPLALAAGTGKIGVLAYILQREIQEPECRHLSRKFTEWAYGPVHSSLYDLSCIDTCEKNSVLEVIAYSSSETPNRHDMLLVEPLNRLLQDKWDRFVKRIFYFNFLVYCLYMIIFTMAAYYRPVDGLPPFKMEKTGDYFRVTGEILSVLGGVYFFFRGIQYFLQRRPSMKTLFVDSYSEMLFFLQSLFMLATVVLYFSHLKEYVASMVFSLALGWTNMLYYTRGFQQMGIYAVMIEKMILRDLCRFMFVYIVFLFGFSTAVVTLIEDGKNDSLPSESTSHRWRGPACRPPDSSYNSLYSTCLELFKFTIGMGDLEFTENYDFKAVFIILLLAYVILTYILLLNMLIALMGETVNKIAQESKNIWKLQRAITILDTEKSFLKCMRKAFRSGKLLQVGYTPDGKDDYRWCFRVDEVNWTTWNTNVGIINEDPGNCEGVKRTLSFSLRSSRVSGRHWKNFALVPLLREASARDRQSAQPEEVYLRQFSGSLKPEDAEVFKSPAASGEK
T1 sequence (O75762 whole entry): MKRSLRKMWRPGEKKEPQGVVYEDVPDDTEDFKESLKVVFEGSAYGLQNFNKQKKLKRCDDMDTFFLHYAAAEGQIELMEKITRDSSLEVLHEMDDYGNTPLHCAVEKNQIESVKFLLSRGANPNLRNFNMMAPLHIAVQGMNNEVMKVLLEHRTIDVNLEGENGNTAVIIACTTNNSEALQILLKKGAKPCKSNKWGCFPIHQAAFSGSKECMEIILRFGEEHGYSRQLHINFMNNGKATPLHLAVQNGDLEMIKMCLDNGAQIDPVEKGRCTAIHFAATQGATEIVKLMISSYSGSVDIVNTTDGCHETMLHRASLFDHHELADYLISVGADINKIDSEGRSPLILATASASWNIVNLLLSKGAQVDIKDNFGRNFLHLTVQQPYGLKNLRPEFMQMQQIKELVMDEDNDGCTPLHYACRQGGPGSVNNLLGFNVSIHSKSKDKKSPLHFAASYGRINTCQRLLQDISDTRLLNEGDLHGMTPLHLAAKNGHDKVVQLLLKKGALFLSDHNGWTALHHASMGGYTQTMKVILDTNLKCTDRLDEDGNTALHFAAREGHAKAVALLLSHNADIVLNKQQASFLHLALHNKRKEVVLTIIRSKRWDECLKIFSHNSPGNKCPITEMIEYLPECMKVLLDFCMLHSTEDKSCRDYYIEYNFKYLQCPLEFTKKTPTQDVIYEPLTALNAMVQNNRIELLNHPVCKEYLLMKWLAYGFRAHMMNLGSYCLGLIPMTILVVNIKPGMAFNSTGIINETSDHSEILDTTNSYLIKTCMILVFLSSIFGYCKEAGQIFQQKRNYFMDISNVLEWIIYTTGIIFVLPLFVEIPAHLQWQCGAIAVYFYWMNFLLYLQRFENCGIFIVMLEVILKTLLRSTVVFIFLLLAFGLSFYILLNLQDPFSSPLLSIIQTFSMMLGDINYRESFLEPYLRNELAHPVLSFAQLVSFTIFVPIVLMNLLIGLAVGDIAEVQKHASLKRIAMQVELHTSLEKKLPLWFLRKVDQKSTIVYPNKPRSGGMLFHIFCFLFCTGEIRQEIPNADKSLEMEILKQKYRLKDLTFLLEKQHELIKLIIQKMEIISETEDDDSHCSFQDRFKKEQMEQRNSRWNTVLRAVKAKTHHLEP
T4 sequence (Q8TD43 whole entry): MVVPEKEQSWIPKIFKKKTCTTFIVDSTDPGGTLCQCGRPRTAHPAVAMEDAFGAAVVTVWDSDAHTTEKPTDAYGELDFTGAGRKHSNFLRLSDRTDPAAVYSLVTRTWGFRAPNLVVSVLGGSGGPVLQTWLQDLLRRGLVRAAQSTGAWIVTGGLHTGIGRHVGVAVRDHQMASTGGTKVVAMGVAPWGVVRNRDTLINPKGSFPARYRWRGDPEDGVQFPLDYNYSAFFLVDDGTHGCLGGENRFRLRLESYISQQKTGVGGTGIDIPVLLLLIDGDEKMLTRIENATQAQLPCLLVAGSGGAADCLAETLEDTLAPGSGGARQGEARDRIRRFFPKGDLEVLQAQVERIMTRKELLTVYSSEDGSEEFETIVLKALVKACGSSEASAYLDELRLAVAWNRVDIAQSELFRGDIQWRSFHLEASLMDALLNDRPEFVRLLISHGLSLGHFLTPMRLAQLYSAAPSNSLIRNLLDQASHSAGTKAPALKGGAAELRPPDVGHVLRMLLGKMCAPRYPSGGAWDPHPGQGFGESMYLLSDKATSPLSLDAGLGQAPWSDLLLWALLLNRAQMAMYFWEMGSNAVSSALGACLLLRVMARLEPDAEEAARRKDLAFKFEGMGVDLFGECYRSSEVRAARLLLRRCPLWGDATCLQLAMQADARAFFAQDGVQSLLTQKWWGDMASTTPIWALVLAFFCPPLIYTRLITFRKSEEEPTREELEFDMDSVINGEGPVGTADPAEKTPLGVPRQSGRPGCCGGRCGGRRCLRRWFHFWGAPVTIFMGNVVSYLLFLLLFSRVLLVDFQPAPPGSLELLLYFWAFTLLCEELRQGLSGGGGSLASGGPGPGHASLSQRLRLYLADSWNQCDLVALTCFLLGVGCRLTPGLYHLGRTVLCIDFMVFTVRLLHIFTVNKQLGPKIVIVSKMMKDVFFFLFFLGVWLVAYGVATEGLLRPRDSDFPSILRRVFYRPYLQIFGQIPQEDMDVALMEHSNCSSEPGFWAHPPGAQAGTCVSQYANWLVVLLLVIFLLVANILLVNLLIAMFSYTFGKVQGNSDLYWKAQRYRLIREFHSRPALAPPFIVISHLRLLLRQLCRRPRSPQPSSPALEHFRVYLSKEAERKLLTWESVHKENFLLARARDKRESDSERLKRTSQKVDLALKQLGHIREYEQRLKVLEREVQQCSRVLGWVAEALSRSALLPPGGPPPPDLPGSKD

SMILES	inhibition of thymol activated TRPA1 (in words) (hTRPA1 [1]; HEK293 cells)	TRPA1 activation / agonist activity (in words) (hTRPA1 [2]; [4])	response of cells expressing hTRPM5 (in words) (hTRPM5; [5])	response of cells expressing hTRPV1 (in words) (hTRPV1; [6])	response of cells expressing hTRPM4B (in words) (hTRPM4B; [7])	response of parental HEK293 cells (in words) (parental HEK293 cells; cells not expressing TRPA1)	EC50 (hTRPA1 [2]; [8]) [µM]	further results
C=C(C)[C@H]1CC=C(C)CC1 [limonene]	do not act as agonists of thymol activation of TRPA1	are TRPA1 agonists; also recorded: have agonist activity						
CC1(C)C2CCC1(CS(N)(=O)=O)C(=O)C2 (stereo not drawn) [camphorsufomamide]	do not act as agonists of thymol activation of TRPA1	have agonist activity						
Cc1cccc(C)c1O [2,6-dimethylphenol]		generated an increase in relative fluorescence	did not generate the same increase in relative fluorescence	did not generate the same increase in relative fluorescence	did not generate the same increase in relative fluorescence	no response	66 ± 22	
Cc1ccc(C(C)(C)C)c(O)c1 [2-tert-butyl-5-methylphenol]		generated an increase in relative fluorescence	did not generate the same increase in relative fluorescence	did not generate the same increase in relative fluorescence	did not generate the same increase in relative fluorescence	background fluorescence	4 ± 2	
CC12CCC(C(=O)C1=O)C2(C)C (stereo not drawn) [camphorquinone]	do not act as agonists of thymol activation of TRPA1	triggers an agonist response; also recorded: are TRPA1 agonists; also recorded: have agonist activity						effect on subsequent thymol and cinnamaldehyde responses (in words) (hTRPA1 [1]; TRPA1 transfected HEK293 cells, compound first, then agonist): desensitizes thymol and cinnamaldehyde responses; EC50 (hTRPA1 [2]; TRPA1 HEK293 cells, FIGS. 8C and 8D, read-out: EC50 of agonist response in TRPA1): ~300 µM
CC12CCC(CC1=O)C2(C)C (stereo not drawn) [Camphor]	fully inhibited	has no agonist activity						inhibition of allyl isothiocyanate activated TRPA1 (in words) (hTRPA1 [1]; HEK293 cells): fully inhibited; inhibition of cinnamaldehyde activated TRPA1 (in words) (hTRPA1 [1]; HEK293 cells): fully inhibited; inhibition of thymol activated TRPA1 (in words) (hTRPA1 [1]; HEK293 cells, listed as camphor): agonists of thymol activation of TRPA1; inhibition of allyl isothiocyanate activated TRPA1 (in words) (hTRPA1 [3]): potentially inhibits; inhibition of cinnamaldehyde activated TRPA1 (in words) (hTRPA1 [3]): potentially inhibits; inhibition of thymol activated TRPA1 (in words) (hTRPA1 [3]): fully inhibits; TRPA1 activation / agonist activity (in words) (hTRPA1 [2]; hTRPA1 HEK293 cells, increase in fluorescence of membrane potential dye, listed as camphor): are TRPA1 agonists
CC1(C)[C@@H]2C[C@H]1[C@@](C)(O)[C@@H](O)C2 [Pinanediol]	both inhibited TRPA1 activation at 1 mM	Neither isomer (+ shown) had a significant agonist activity until 10 mM						
Oc1ccccc1 [phenol]								response of cells expressing hTRPM5 (in words) (hTRPM5): did not generate the same increase in relative fluorescence; response of cells expressing hTRPV1 (in words) (hTRPV1): generated an increase in relative fluorescence; response of cells expressing hTRPM4B (in words) (hTRPM4B): did not generate the same increase in relative fluorescence; taste aversion, licks/trial (in words) (mice; mouse, in vivo): a decrease in licks/trial; TRPA1 activation / agonist activity (in words) (hTRPA1 [2]): did not generate the same increase in relative fluorescence
Cc1ccc(C)c(O)c1 [2,5-dimethylphenol]		generated an increase in relative fluorescence	did not generate the same increase in relative fluorescence	did not generate the same increase in relative fluorescence	did not generate the same increase in relative fluorescence	no response	52 ± 29	taste aversion, licks/trial (in words) (mice; [9]): a decrease in licks/trial
CC1(C(=O)O)CCC(C(=O)O)C1(C)C (stereo not drawn) [camphoric acid]	do not act as agonists of thymol activation of TRPA1	are TRPA1 agonists; also recorded: have agonist activity						
Cc1ccc(O)cc1C [3,4-dimethylphenol]						no response		
CC(C)c1cccc(C(C)C)c1O [Propofol]								response of cells expressing hTRPM5 (in words) (hTRPM5): did not generate the same increase in relative fluorescence; response of cells expressing hTRPV1 (in words) (hTRPV1): did not generate the same increase in relative fluorescence; response of cells expressing hTRPM4B (in words) (hTRPM4B): did not generate the same increase in relative fluorescence; taste aversion, licks/trial (in words) (mice; mouse, in vivo): a decrease in licks/trial; response of parental HEK293 cells (in words) (parental HEK293 cells): background fluorescence; EC50 (hTRPA1 [2]): 13 ± 6 µM; TRPA1 activation / agonist activity (in words) (hTRPA1 [2]): generated an increase in relative fluorescence
Cc1ccccc1O [o-Cresol]		generated an increase in relative fluorescence	did not generate the same increase in relative fluorescence	did not generate the same increase in relative fluorescence	did not generate the same increase in relative fluorescence	no response	327 ± 132	taste aversion, licks/trial (in words) (mice; [9]): a decrease in licks/trial
